Measurements as given in BindingDB's records for patent US12544382 (Beijing Tide Pharmaceutical Co., 2026).

target: Serine/threonine-protein kinase ATR (Homo sapiens, UniProt Q13535); assay: ATR Kinase Activity Assay
Procedure: Biotinylated protein derived from p53 (Eurofins, art. No.: 14-952) was phosphorylated with ATR kinase. The amount of phosphorylated protein was determined by time-resolved fluorescence in this assay. The amount of phosphorylated protein was detected by anti-p53-phospho-(serine 15)-K-specific antibody (Cisbio, art. No.: 61GSTDLA) and d2 labeled anti-GST antibody (Cisbio, art. No. 61P08KAE). Before the experiment, the following working solution was prepared as required: 1× reaction buffer (20 mM HEPES PH8.0, 1% glycerol, 0.01% Brij-35), dilution buffer (20 mM HEPES PH8.0, 1% glycerol, 0.01% Brij-35, 5 mM DTT and 1% BSA), stop solution (20 mM HEPES PH8.0, 1% glycerol, 0.01% Brij-35, 250 mM EDTA), detection buffer (50 mM HEPES pH7.0, 150 mM NaCl, 267 mM KF, 0.1% sodium cholate, 0.01% Tween-20, 0.0125% sodium azide). The reagents used above are purchased from Sigma or Invitrogen, except for those where the manufacturer was mentioned.

Chain of Serine/threonine-protein kinase ATR (Q13535 whole entry): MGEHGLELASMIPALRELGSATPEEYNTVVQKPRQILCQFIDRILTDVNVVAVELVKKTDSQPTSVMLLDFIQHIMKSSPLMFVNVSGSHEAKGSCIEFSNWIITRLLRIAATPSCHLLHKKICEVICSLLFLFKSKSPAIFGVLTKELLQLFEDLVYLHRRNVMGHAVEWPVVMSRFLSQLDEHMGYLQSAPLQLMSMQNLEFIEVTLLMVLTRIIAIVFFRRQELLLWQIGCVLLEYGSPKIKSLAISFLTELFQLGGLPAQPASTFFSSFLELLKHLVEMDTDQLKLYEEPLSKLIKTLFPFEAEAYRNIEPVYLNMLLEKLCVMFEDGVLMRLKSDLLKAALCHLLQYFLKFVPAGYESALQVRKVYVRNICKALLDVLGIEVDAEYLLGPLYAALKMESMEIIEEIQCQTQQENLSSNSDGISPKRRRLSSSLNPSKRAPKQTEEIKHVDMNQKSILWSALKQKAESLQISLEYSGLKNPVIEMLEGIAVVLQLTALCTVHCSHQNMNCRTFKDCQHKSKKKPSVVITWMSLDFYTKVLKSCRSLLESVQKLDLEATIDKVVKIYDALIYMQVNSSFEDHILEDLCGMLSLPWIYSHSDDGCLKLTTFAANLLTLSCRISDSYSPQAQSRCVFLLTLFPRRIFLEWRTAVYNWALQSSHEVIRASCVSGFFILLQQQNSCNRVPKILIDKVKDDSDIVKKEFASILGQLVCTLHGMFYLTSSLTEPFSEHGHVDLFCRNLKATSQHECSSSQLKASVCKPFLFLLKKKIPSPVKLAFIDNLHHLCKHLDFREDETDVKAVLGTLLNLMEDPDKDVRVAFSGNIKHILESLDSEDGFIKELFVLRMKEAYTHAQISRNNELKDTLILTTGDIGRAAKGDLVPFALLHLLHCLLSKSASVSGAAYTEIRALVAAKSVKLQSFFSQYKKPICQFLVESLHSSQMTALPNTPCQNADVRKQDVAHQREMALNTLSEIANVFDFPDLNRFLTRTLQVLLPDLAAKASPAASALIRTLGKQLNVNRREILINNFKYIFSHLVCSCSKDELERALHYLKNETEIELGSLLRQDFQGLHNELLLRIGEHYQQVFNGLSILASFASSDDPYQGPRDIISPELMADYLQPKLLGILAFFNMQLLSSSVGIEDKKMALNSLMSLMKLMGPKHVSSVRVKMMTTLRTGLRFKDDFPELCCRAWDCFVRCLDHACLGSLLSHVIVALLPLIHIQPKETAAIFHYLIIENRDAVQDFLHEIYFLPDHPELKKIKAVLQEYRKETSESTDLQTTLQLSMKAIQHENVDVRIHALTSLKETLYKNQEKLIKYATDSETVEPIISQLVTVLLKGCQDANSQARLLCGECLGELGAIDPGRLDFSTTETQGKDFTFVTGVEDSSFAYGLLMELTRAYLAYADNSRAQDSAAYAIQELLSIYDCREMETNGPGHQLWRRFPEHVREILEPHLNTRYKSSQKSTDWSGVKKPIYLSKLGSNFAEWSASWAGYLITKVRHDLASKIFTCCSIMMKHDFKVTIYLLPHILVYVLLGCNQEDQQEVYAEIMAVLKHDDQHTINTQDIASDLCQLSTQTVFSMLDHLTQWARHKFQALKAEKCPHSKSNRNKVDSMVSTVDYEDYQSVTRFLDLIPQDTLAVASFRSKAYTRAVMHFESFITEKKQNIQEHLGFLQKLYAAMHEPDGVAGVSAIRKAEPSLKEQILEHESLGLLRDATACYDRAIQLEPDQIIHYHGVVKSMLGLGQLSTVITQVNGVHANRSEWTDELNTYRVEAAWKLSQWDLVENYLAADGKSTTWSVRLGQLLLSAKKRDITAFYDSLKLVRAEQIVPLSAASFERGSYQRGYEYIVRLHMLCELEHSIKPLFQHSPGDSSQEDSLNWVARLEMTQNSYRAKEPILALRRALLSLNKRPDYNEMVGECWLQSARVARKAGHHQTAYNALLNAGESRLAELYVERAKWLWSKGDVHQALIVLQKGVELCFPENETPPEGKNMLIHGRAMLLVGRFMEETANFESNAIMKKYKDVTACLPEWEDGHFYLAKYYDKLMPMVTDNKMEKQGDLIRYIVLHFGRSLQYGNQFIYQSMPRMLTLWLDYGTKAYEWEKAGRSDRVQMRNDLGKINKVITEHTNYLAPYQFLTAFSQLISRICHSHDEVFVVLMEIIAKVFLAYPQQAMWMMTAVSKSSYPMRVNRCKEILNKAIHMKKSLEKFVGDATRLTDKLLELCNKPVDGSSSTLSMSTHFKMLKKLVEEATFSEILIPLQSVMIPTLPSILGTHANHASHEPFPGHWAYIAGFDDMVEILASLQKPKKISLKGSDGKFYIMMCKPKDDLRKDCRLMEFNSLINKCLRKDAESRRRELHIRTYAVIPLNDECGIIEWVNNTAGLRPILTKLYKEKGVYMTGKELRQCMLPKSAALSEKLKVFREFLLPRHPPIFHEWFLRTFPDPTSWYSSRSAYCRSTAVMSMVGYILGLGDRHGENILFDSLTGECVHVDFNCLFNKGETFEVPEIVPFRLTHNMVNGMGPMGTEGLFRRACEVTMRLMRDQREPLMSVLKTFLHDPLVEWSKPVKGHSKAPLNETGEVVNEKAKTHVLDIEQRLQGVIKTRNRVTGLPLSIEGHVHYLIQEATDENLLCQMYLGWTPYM

IC50 [µM] | SMILES
0.047 | Cc1n[nH]c(C)c1-c1cc(N2CCOC[C@H]2C)nc(-c2ccnc3c2ccn3CC2CNC2)n1 [US12544382, Example A27]
2.32 | Cc1nn(C)c(C)c1-c1cc(N2CCOC[C@H]2C)nc(-c2ccnc(C(F)F)c2)n1 [US12544382, Example A25]
0.083 | CNc1nc2cc(Cl)ccc2n1-c1nc(-c2c(C)nn(C3CCNCC3)c2C(F)(F)F)cc(N2CCOC[C@H]2C)n1 [US12544382, Example D25]
0.003 | CNc1nc2ccccc2n1-c1nc(-c2c(C)nn(C3CCNCC3)c2C(F)(F)F)cc(N2CCOC[C@H]2C)n1 [US12544382, Example D24]
